Assay results reported in ChEMBL document CHEMBL1201862, “PubChem BioAssay data set” (2004).
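Exposure lasted 48 hours, with cells grown in 96-well plates and compounds tested at five concentrations. GI50 is the concentration that inhibits growth by half.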 Active and inactive are the calls of the source. Rule as the data show it: active = GI50 up to about 1.1 µM and inactive = higher.

How the values were obtained:
Assay in all cases: inhibition of tumour cell growth, NCI panel, 48 h
[1] = tested on: 786-0
[2] = tested on: CAKI-1
[3] = tested on: CCRF-CEM
[4] = tested on: DU-145
[5] = tested on: HCT-15
[6] = tested on: HL-60
[7] = tested on: KM12
[8] = tested on: LOX IMVI
[9] = tested on: Malme-3M
[10] = tested on: NCI-H460
[11] = tested on: NCI-H522
[12] = tested on: NCI/ADR-RES
[13] = tested on: OVCAR-8
[14] = tested on: RPMI-8226
[15] = tested on: SF-295
[16] = tested on: SNB-19
[17] = tested on: SNB-75
[18] = tested on: T47D
[19] = tested on: TK-10
[20] = tested on: UO-31

Compound	GI50 [1]	GI50 [2]	GI50 [3]	GI50 [4]	GI50 [5] [µM]	GI50 [6]	GI50 [7]	GI50 [8]	GI50 [9]	GI50 [10]	GI50 [11]	GI50 [12]	GI50 [13]	GI50 [14]	GI50 [15]	GI50 [16]	GI50 [17]	GI50 [18]	GI50 [19]	GI50 [20]
O=C(Nc1sccc1S(=O)(=O)c1ccccc1)c1cccnc1	12 µM (inactive)	> 32.7 µM (inactive)	7.03 µM (inactive)	39.2 µM (inactive)	5.18	0.614 µM (active)	4.62 µM (inactive)	75.3 µM (inactive)	8.59 µM (inactive)	8.34 µM (inactive)	7.98 µM (inactive)	3.96 µM (inactive)	22.7 µM (inactive)	7.52 µM (inactive)	8.63 µM (inactive)	> 44.5 µM (inactive)	19.1 µM (inactive)	70.6 µM (inactive)	> 83 µM (inactive)	> 58.1 µM (inactive)
CCOC(=O)C(SCCO)C(C(=O)OCC)n1ccc(N)nc1=O (stereo not given)	> 100 µM (inactive)	> 100 µM (inactive)	> 100 µM (inactive)	> 100 µM (inactive)	> 100	> 100 µM (inactive)	> 100 µM (inactive)	> 100 µM (inactive)	> 100 µM (inactive)	> 100 µM (inactive)	> 100 µM (inactive)	> 100 µM (inactive)	> 100 µM (inactive)	> 100 µM (inactive)	> 100 µM (inactive)	> 100 µM (inactive)	> 100 µM (inactive)	> 100 µM (inactive)	> 100 µM (inactive)	> 100 µM (inactive)
C[C@@]12C[C@@H](c3ccccc3O1)N1CCCCSC1=N2	> 100 µM (inactive)	> 100 µM (inactive)	> 100 µM (inactive)	> 100 µM (inactive)	> 100	3.46 µM (inactive)	> 100 µM (inactive)	> 100 µM (inactive)	> 100 µM (inactive)	> 100 µM (inactive)	> 100 µM (inactive)	> 100 µM (inactive)	> 100 µM (inactive)	> 100 µM (inactive)	> 100 µM (inactive)	> 100 µM (inactive)	> 100 µM (inactive)	> 100 µM (inactive)	> 100 µM (inactive)	> 100 µM (inactive)
CCCCc1ccc(-n2sc3ncc([N+](=O)[O-])cc3c2=O)cc1	15 µM (inactive)	13.4 µM (inactive)	7.24 µM (inactive)	23.3 µM (inactive)	15.1	10.4 µM (inactive)	12 µM (inactive)	13.3 µM (inactive)	7.8 µM (inactive)	12.7 µM (inactive)	1.2 µM (inactive)	11.5 µM (inactive)	22.9 µM (inactive)	9.12 µM (inactive)	10.5 µM (inactive)	13.7 µM (inactive)	4.22 µM (inactive)	10.1 µM (inactive)	21.1 µM (inactive)	12.5 µM (inactive)
COc1ccc2c(C)c(Oc3c(Cl)c(Cl)c(O)c(C#N)c3C#N)oc2c1	> 100 µM (inactive)	> 100 µM (inactive)	> 100 µM (inactive)	> 100 µM (inactive)	> 100	> 100 µM (inactive)	> 100 µM (inactive)	> 100 µM (inactive)	> 100 µM (inactive)	> 100 µM (inactive)	> 100 µM (inactive)	> 100 µM (inactive)	> 100 µM (inactive)	> 100 µM (inactive)	> 100 µM (inactive)	> 100 µM (inactive)	> 100 µM (inactive)	> 100 µM (inactive)	> 100 µM (inactive)	> 100 µM (inactive)
Cc1cn(CC2=NCCN2)c(=O)[nH]c1=O	> 100 µM (inactive)	> 100 µM (inactive)	> 100 µM (inactive)	> 100 µM (inactive)	> 100	> 100 µM (inactive)	> 100 µM (inactive)	> 100 µM (inactive)	> 100 µM (inactive)	> 100 µM (inactive)	> 100 µM (inactive)	> 100 µM (inactive)	> 100 µM (inactive)	> 100 µM (inactive)	> 100 µM (inactive)	> 100 µM (inactive)	> 100 µM (inactive)	> 100 µM (inactive)	> 100 µM (inactive)	> 100 µM (inactive)
COc1ccc(C2C(C(=O)c3ccccc3)=C(O)C(O)(CC(=O)c3ccccc3)N2c2ccc(OC)cc2)cc1 (stereo not given)	16.8 µM (inactive)	24.5 µM (inactive)	3.52 µM (inactive)	38.4 µM (inactive)	9.38	5.78 µM (inactive)	11.2 µM (inactive)	15.2 µM (inactive)	28 µM (inactive)	24.4 µM (inactive)	4.35 µM (inactive)	12.5 µM (inactive)	10.4 µM (inactive)	5.04 µM (inactive)	12.3 µM (inactive)	12.2 µM (inactive)	34.1 µM (inactive)	18.5 µM (inactive)	16.3 µM (inactive)	11.5 µM (inactive)
O/N=N/c1ccccn1.OCC1OC2OC3C(CO)OC(OC4C(CO)OC(OC5C(CO)OC(OC6C(CO)OC(OC7C(CO)OC(OC1C(O)C2O)C(O)C7O)C(O)C6O)C(O)C5O)C(O)C4O)C(O)C3O (stereo not given)	> 100 µM (inactive)	> 100 µM (inactive)	67.5 µM (inactive)	> 100 µM (inactive)	> 100	28.1 µM (inactive)	82.4 µM (inactive)	57.3 µM (inactive)	61 µM (inactive)	68.7 µM (inactive)	68.2 µM (inactive)	31.9 µM (inactive)	> 100 µM (inactive)	27.3 µM (inactive)	> 100 µM (inactive)	63.7 µM (inactive)	37.6 µM (inactive)	> 100 µM (inactive)	> 100 µM (inactive)	> 100 µM (inactive)
